Reference: patent US20230348401A1, “Inhibitors of Glucose-6-phosphate Dehydrogenase and Uses Thereof” (The Trustees of Princeton University, priority 2020, published 2023)

What was measured:
T cell lineages = assay: NADPH and NADP+ pools across cell types (LC-MS); type: cell-based
Method: For suspension cells (including T cells and red blood cells), 2×10^6 cells were seeded in 1 mL of media in 12-well plates and incubated with appropriate media, which included isotope tracers and/or chemical inhibitors and/or cytokines, as described. For all experiments involving small molecule agents, DMSO concentrations were <0.2%. After 2 hours, cell suspensions were transferred to 1.5 mL tubes and pelleted (30 seconds, 6000 rpm, room temperature). Media was removed by aspiration and metabolome extraction was performed by the addition of 75 µL of ice cold solvent (40:40:20 ACN:MeOH:H2O + 0.5%FA). After a 5-minute incubation on ice, acid was neutralized by the addition of NH4HCO3. After centrifugation (15 minutes, 16000 rpm, 4° C.), the resulting supernatant was transferred to a clean tube, frozen on dry ice and kept at -80° C. until LC-MS analysis.
Metabolites were analyzed using a quadrupole-orbitrap mass spectrometer (Q Exactive Plus, Thermo Fisher Scientific, Waltham, MA), coupled to hydrophilic interaction chromatography (HILIC) with LC separation on a XBridge BEH Amide column (Waters), or a stand-alone orbitrap (Thermo-Fisher Exactive) coupled to reversed-phase ion-pairing chromatography with LC separation on a HSS-T3 column (Waters). […]

naïve CD8+ T cells = assay: T cell activation, proliferation and viability (flow cytometry); type: cell-based, mouse
Method: The functional consequences of oxPPP inhibition were next explored using G6PDi-1 in T cells. To test the effect of G6PDi-1 on activation and proliferation, naïve CD8+ T cells were isolated from spleen and activated in vitro with plate-bound αCD3/αCD28 and IL-2. Activation was evaluated by flow cytometry analysis of surface markers CD69 (levels rapidly rise upon activation) and CD25 (usually peaking at 24-48 hours post-activation), and cell size, which increases over the first 24 hours post-activation. To quantify proliferation, naïve cells were stained with […] (CTV) and dye dilution was measured by flow cytometry at day 4 post-activation.
To analyze cell surface markers expression, cells were collected, washed with PBS and stained with the viability dye Live/Dead Aqua. Cells were then washed with staining buffer and stained for surface markers: CD4 (APC-Cy7, clone RM4-5,), CD8a (PerCP-Cy5.5, clone 53-6.7), CD25 (APC, clone PC61), CD44 (PE-Cy7, clone IM7), CD62L (PE, clone MEL-14) CD69 (FITC, clone H1.2F3), for T cells; CD11b (APC, clone M1/70 and F4/80 (FITC, clone BM8) for macrophages.
To analyze proliferation, naïve CD8 T cells were stained with CTV dye and either maintained in a naïve state with IL7 or stimulated with αCD3/αCD28 + recombinant IL-2 in the presence of increasing concentrations of G6PDi-1. Cells were refed at days 2 and 3 post-stimulation, and proliferation was measured at day 4 post-activation. Cells were collected, washed with staining buffer and stained with the viability dye propidium iodide.

[1] = test system: active CD8+ or CD4+ cells; assay: Intracellular cytokines in active T cells after PMA and ionomycin; type: cell-based, mouse
Method: (§1) To analyze intracellular cytokines, active T cells were re-stimulated with PMA (20 ng/ml) and ionomycin (1 µg/ml) in the presence of GolgiStop and increasing concentrations of G6PDi-1. After a 6-hour incubation period, cells were collected, washed with PBS and stained with the viability dye Live/Dead Aqua. Cells were then washed with staining buffer and stained for surface markers: CD4 (APC-Cy7, clone RM4-5,), CD8a (PerCP-Cy5.5, clone 53-6.7). Cells were then fixed and permeabilized and stained for intracellular cytokines: IFN-γ (FITC, clone XMG1.2), TNFα (PE-Cyanine7, clone MP6-XT22) and IL-2 (PE, clone JES6-5H4). To analyze intracellular cytokines, mature macrophages were stimulated with LPS (100 ng/mL) + IFNγ (20 ng/mL) in the presence of GolgiStop and increasing concentrations of G6PDi-1. After a 6-hour incubation period, cells were collected, washed with PBS and stained with the viability dye Live/Dead Aqua. Cells were then fixed and permeabilized and stained for intracellular cytokines: TNFα (PE-Cyanine7, clone MP6-XT22) and IL-10 (V450, clone JES5-16E3).

[2] = test system: bone marrow derived macrophages; assay: Intracellular cytokines in bone marrow-derived macrophages; type: cell-based, mouse
Method: Mouse bone marrow monocyte/macrophage progenitors were isolated from femur and tibia and cultured in BMM media (DMEM supplemented with 10% FBS, 20% L929-conditioned media, 100 U/ml penicillin, and 100 µg/ml streptomycin). Expression of CD11b and F4/80 was checked by flow cytometry after 6 days in culture. Mature macrophages were either maintained in BMM media (M0 macrophages) or stimulated overnight with LPS (100 ng/mL) + IFNγ (20 ng/mL) for M1 activation or IL-4 (20 ng/mL) for M2 activation.
as §1, with “After a 6-hour incubation period, cells were collected, washed with PBS and stained with the viability dye Live/Dead Aqua. Cells were then fixed and permeabilized and stained for intracellular cytokines: TNFα (PE-Cyanine7, clone MP6-XT22) and IL-10 (V450, clone JES5-16E3).” left out

N#Cc1cc(Nc2ncc3c(n2)CCCCC3=O)cs1 [Compound 2, 4-([5-oxo-6H,7H,8H,9H-cyclohepta[d]pyrimidin-2-yl]amino)thiophene-2-carbonitrile]
decrease in NADPH (T cell lineages): > 10 fold | increase in NADP+ (T cell lineages): 5-10 fold | proliferation of CD4+ T cells (naïve CD8+ T cells; CD4+ T cells): minimal effect | viability (naïve CD8+ T cells; CD8+ T cells): minimal effect | activation-dependent proliferation (naïve CD8+ T cells; CD8+ T cells, day 4 post-activation): minimal effect | upregulation of activation markers and activation-dependent increase in cell size (naïve CD8+ T cells; CD8+ T cells, αCD3/αCD28 and IL-2): did not alter | cytokine production ([1]; CD8+ and CD4+ T cells, PMA and ionomycin, 6 h): blocked cytokine production | IFNγ mRNA ([1]; active CD8+ T cells): decreased | macrophage cytokine production ([2]; classically activated macrophages (MΦ-1)): minimally affecting | NADPH, LPS-induced pro-inflammatory cytokine production, iNOS upregulation ([2]; macrophages): did not decrease
